# Test results: US7531320B2, “Modulation of β-catenin/TCF-activated transcription” (priority 2003, dated 2009)
# Columns and labels:
# p300 (1-111) = biological target: T1, p300 (1-111) (Homo sapiens, UniProt Q09472); assay: Pull-down of p300 deletion constructs on COMPOUND 2 coated beads, competition with excess COMPOUND 1; format: binding; conditions: p300 (1-111), (1-211), (1-351) in SW480 lysates, 150 μM COMPOUND 1
# T1 construct: 6xHis (C); HSV tag (C); expressed in transfected cells
# Method: FIG. 2. The first 111 amino acids of CBP, but not p300, specifically bind COMPOUND 1. • A. Schematic representation of the wild-type and deletion constructs for CBP. • B. CBP (1-111) contains the minimal binding domain of COMPOUND 1. Expression levels of CBP deletion constructs in SW480 cells are shown (upper panel). 10 μg of total protein was subjected to gel electrophoresis and subjected to immunoblotting using anti-His antibodies. Whole cell lysates of SW480 cells expressing CBP deletion constructs were bound to streptavidin-agarose beads coated with 100 μM of COMPOUND 2. The bound fractions were subjected to gel electrophoresis and immunoblotting using anti-His antibodies (lower panel). Arrows point to constructs which remained bound to COMPOUND 2 coated beads. • C. […] CBP deletion constructs, CBP(1-111),CBP (1-211), and CBP (1-351) and p300 deletion constructs, p300 (1-111), p300 (1-211), and p300 (1-351) were transfected into SW480 cells. Whole cell lysates were incubated with streptavidin-agarose beads or streptavidin-agarose beads coated with 100 μM COMPOUND 2 (lower panel). The binding of CBP constructs (1-111,1-211, and 1-351) and p300 constructs (1-111,1-211, and 1-351) to the beads was challenged with excess COMPOUND 1 (150 μM). • D. CBP (1-111) binds to COMPOUND 1 in a phosphorylation independent manner. […]
# cyclin D1 = assay: Western blot of Cyclin D1 in SW480 whole cell lysates; format: cell-based, human; conditions: SW480 cells, 25 μM, beginning at 4 hours, increasing at 24 hours
# Method: FIG. 5. COMPOUND 1 inhibits the expression of cyclin D1. • A. Cyclin D1 levels are decreased with COMPOUND 1 treatment. Western blot analysis was performed on 25 μg of SW480 whole cell lysates treated for 4, 8, or 24 hours with either 25 μM of COMPOUND 1 or control (0.5% DMSO). Immunoblotting was performed using anti-Cyclin D1 antibodies (Santa Cruz Biotechnology Inc.). • B. In vivo occupancy of cyclin D1 and c-myc promoters by CBP and p300. […] ChIP assays were performed on promoter of c-myc from SW480 cells which was treated for 8 hours with COMPOUND 1 (25 μM) or control (0.5% DMSO). CBP (AC-26, a generous gift from Dr. David Livingston, Harvard University, Boston, Mass.) or p300 (C-20, Santa Cruz Biotechnology Inc.) specific antibodies were used to evaluate the promoter occupancy by CBP or p300 in presence of COMPOUND 1 or control (DMSO) treatment.
# Immune complexes, from above, were separated on SDS-PAGE followed by transfer to immobilon-P membranes (PVDF) from (Millipore, Bedford, Mass.). […] Immunoblots were analyzed using an ECL detection kit (Amersham Pharmacia Biotech).
# The β-actin gene was used to normalize the data. The ΔCycle of Threshold (CT) values were determined by subtracting the average values of each set from the corresponding average values obtained for the β-actin gene. […] Cyclin D1 protein levels in cells were also evaluated. […]
# T1 sequence (Q09472 1-117): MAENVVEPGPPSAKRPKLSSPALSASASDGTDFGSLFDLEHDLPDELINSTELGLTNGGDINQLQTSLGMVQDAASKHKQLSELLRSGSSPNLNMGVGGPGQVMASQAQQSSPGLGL
smiles,measurement,setting,value
O=C1C(Cc2ccc(O)cc2)N2C(=O)CCN(C(=O)NCc3ccccc3)C2CN1Cc1cccc2ccccc12 (centres unmarked) [COMPOUND 1],Competition of p300 fragment binding to COMPOUND 2 beads by excess COMPOUND 1,p300 (1-111),failed to have any effect
same,Level of Cyclin D1 protein,cyclin D1,clear reduction
